Experimental data reported in patent EP0442769A2 (priority 1990, dated 1991).
Where two headings read alike, the source gives them in different places.

Key:
Stability in fresh serum = type: in vitro ADME; design: key to Stabilité dans sérum frais 4°C / Stabilité dans sérum frais 37°C: + : stable.; *a: * : stabilité dans le sérum frais à 37°C au bout de 24h : on ne retrouve que 8 à 12%, 78% et 65% de la quantité de départ dans le sérum respectivement pour (a), (b) et (c).; *b: * : stabilité dans le sérum frais à 37°C au bout de 24h : on ne retrouve que 8 à 12%, 78% et 65% de la quantité de départ dans le sérum respectivement pour (a), (b) et (c).; *c: * : stabilité dans le sérum frais à 37°C au bout de 24h : on ne retrouve que 8 à 12%, 78% et 65% de la quantité de départ dans le sérum respectivement pour (a), (b) et (c); conditions: for Stabilité dans sérum frais 37°C / remaining at 24 h: * = fraction of starting quantity found after 24h, 37°C; for remaining at 24 h: read-out: Stabilité dans sérum frais 37°C
From the text: (§1) Ces composés ont été également testés pour leur absorption membranaire et stabilité érythrocitaire et plasmatique.

sites opioides de type µ = target: T1, sites opioides de type µ (Oryctolagus cuniculus, UniProt G1TAQ8); assay: [3H]diprenorphine competition binding, crude membrane fraction of rabbit cerebellum; design: species or system lapin
T1 construct: fraction membranaire brute obtenue à partir de tissu frais (cervelet de lapin, cervelet de cobaye); from tissue; host or cells: rabbit cerebellum (New Zealand rabbits), crude membrane fraction
Description: (§2) Les animaux utilisés sont des lapins néo-zélandais d'environ 1500 g et des cobayes tricolores d'environ 300 g.
(§3) La préparation utilisée est une fraction membranaire brute obtenue à partir de tissu frais (cervelet de lapin, cervelet de cobaye) par une méthode standard d'homogénéisation et de centrifugation différentielle. La suspension finale est en tampon tris-HCl (50 mM, pH 7,4) et contient environ 5 mg de protéine par ml.
(§4) [15,16(n)-³H] diprenorphine à 25-30 CI/mmol (Amersham International plc, Amersham, Angleterre).
(§5) Radioligand (0,3 pmol) de [³H] diprenorphine et fraction membranaire brute (0,25 mg de protéine) sont incubés pendant 1 heure à 25°C dans un volume final de 1,0 ml en tampon Tris-HCl (50 mM, pH 7,4) : • (i) en absence de toute drogue compétitrice , • (ii) en présence de 12 concentrations croissantes de la nouvelle drogue et, • (iii) en présence de 10 µmol/l de diprenorphine non radioactive.
(§6) Le contenu de chaque tube est ensuite rapidement filtré (sous vide) sur disques de fibre de verre (Whatman GF/B) disposés sur un jeu de rampes de filtration Millipore modèle 1225. Les filtres sont rincés avec 2 x 3 ml de tampon froid (O-2°C) puis séchés sous une lampe IR pendant 15 minutes. La radioactivité de chaque filtre, dans 3 ml de cocktail Ready-sol MB (Beckman) est comptée avec un compteur à scintillation liquide Kontron modèle MR 300.
(§7) A partir des paramètres mesurés, il est ensuite calculé les différentes constantes Kx pour les sites considérés.
(§8) Ces valeurs ont été calculées à partir des valeurs mesurées des concentrations CI.50 de drogue inhibant de 50 % la liaison à l'équilibre de (3H) diprenorphine utilisée à la concentration fixe de 0,3 nM.

GR chargés = assay: Extracellular leak from loaded red blood cells, 24 h incubation; type: in vitro ADME
From the text: as §1

membrane érythrocytaire = assay: Membrane adsorption at haematocrit 45%; type: in vitro ADME
From the text: as §1

sites opioides de type k = target: T2, sites opioides de type k (Cavia porcellus, UniProt P41144); assay: [3H]diprenorphine competition binding, crude membrane fraction of guinea pig cerebellum; design: species or system cobaye; conditions: guinea pig cerebellum membranes; for IC50: [3H]diprenorphine 0,3 nM, 1 h at 25°C, (n) in brackets, read-out: I50κ (concentration inhibitrice 50); for Ki: calculated from the measured CI.50, read-out: KIκ (constante de dissociation apparente du composé testé)
T2 construct: fraction membranaire brute obtenue à partir de tissu frais (cervelet de lapin, cervelet de cobaye); from tissue; host or cells: guinea pig cerebellum (tricolour guinea pigs), crude membrane fraction
Description: as §2, §3, §4, §5, §6, §7, §8

Stability in haemolysate = type: in vitro ADME; design: key: + : stable.; *a: * : stabilité dans le sérum frais à 37°C au bout de 24h : on ne retrouve que 8 à 12%, 78% et 65% de la quantité de départ dans le sérum respectivement pour (a), (b) et (c).; *b: * : stabilité dans le sérum frais à 37°C au bout de 24h : on ne retrouve que 8 à 12%, 78% et 65% de la quantité de départ dans le sérum respectivement pour (a), (b) et (c).; *c: * : stabilité dans le sérum frais à 37°C au bout de 24h : on ne retrouve que 8 à 12%, 78% et 65% de la quantité de départ dans le sérum respectivement pour (a), (b) et (c)
From the text: as §1

[1] = [3H]diprenorphine 0,3 nM, rabbit cerebellum membranes, 1 h at 25°C, (n) in brackets, read-out: I50µ (concentration inhibitrice 50)
[2] = calculated from the measured CI.50, rabbit cerebellum membranes, read-out: KIµ (constante de dissociation apparente du composé testé)

Row | Compound | Stabilité dans sérum frais 4°C (Stability in fresh serum) | Stabilité dans sérum frais 37°C (Stability in fresh serum) | IC50 (sites opioides de type µ; [1]) [nM] | Ki (sites opioides de type µ; [2]) [nM] | GR chargés : Incubation 24h Fuite extra-cellulaire 4°C (GR chargés) [%] | GR chargés : Incubation 24h Fuite extra-cellulaire 37°C (GR chargés) [%] | Adsorption membranaire à Hte 45% (membrane érythrocytaire) [%] | IC50 (sites opioides de type k) [nM] | Ki (sites opioides de type k) [nM] | Stabilité dans hémolysat 4°C (Stability in haemolysate) | Stabilité dans hémolysat 37°C (Stability in haemolysate) | IC50 (sites opioides de type µ) [nM] | Ki (sites opioides de type µ) [nM] | remaining at 24 h (Stability in fresh serum) [%] | affinité apparente pour les sites opioïdes µ (sites opioides de type µ; result in words)
1 | C=CCN1CC[C@]23c4c5ccc(OS(=O)(=O)O)c4O[C@H]2C(=O)CC[C@@]3(OS(=O)(=O)O)[C@H]1C5 [naloxone-3,14-disulfate] | + | + | 20800 | 5200 | 5 | 50 | 34 | > 100000 | > 25000 | + | + |  |  |  | 
2 | O=C1CC[C@@]2(O)[C@H]3Cc4ccc(O)c5c4[C@@]2(CCN3CC2CC2)[C@H]1O5 [naltrexone, reference compound] |  |  |  |  |  |  |  |  |  |  |  | 1.2 ± 0.2 | 0.3 |  | 
3 | O=C1CC[C@@]2(O)[C@H]3Cc4ccc(OP(=O)(O)O)c5c4[C@@]2(CCN3CC2CC2)[C@H]1O5 [naltrexone-3-phosphate] | + |  | 22 ± 2 | 5.6 | 1 | 12 | 22 | 30 ± 3 | 7.5 | + | + |  |  | 8 to 12 | 
4 | O=C1CC[C@@]2(OS(=O)(=O)O)[C@H]3Cc4ccc(OS(=O)(=O)O)c5c4[C@@]2(CCN3CC2CC2)[C@H]1O5 [naltrexone-3,14-disulfate] | + | + | 7850 | 1960 | 15 | 70 | 40 | 39000 | 9700 | + | + |  |  |  | 
5 | O=C1CC[C@@]2(O)[C@H]3Cc4ccc(OP(=O)(O)OP(=O)(O)OP(=O)(O)O)c5c4[C@@]2(CCN3CC2CC2)[C@H]1O5 [naltrexone-3-triphosphate] | + |  | 5.2 ± 0.4 | 1.3 | 0 | 0 | 22 | 15 ± 1.4 | 3.8 | + | + |  |  | 65 | 
6 | C=CCN1CC[C@]23c4c5ccc(OP(=O)(O)OC)c4O[C@H]2C(=O)CC[C@@]3(O)[C@H]1C5 [naloxone-3-phosphate(OMe)] | + | + | 1200 | 260 | 6 | 40 | 10 |  |  | + | + |  |  |  | 
7 | COP(=O)(O)Oc1ccc2c3c1O[C@H]1C(=O)CC[C@@]4(O)[C@@H](C2)N(CC2CC2)CC[C@]314 [naltrexone-3-phosphate(OMe)] | + | + | 130 ± 9 | 33 | 5 | 40 | 10 | 270 ± 35 | 68 | + | + |  |  |  | 
8 | C=CCN1CC[C@]23c4c5ccc(OS(=O)(=O)O)c4O[C@H]2C(=O)CC[C@@]3(O)[C@H]1C5 [naloxone-3-sulfate] |  |  | 4300 | 1070 |  |  |  |  |  |  |  |  |  |  | 
9 | C=CCN1CC[C@]23c4c5ccc(OP(=O)(O)O)c4O[C@H]2C(=O)CC[C@@]3(O)[C@H]1C5 [naloxone-3-phosphate] | + | + | 3.5 ± 0.3 | 0.9 | 1 | 12 | 0 |  |  | + | + |  |  |  | activité légèrement plus élevée que la naloxone
10 | O=C1CC[C@@]2(O)[C@H]3Cc4ccc(OS(=O)(=O)O)c5c4[C@@]2(CCN3CC2CC2)[C@H]1O5 [naltrexone-3-sulfate] |  |  | 1540 | 385 |  |  |  | 2200 | 550 |  |  |  |  |  | 
11 | C=CCN1CC[C@]23c4c5ccc(OP(=O)(O)OP(=O)(O)OP(=O)(O)O)c4O[C@H]2C(=O)CC[C@@]3(O)[C@H]1C5 [naloxone-3-triphopshate] | + |  | 21 ± 2 | 5.2 | 0 | 0 | 22 | 106 ± 15 | 27 | + | + |  |  | 78 | 
